From US9783510B2, “Small molecule mediated transcriptional induction of E-cadherin” (Vanderbilt University, priority 2014, dated 2017)

The compounds below were run on E-cadherin expression in SW620 cells (assay: E-cadherin expression, in-cell Western (ICW), SW620 cells). Conditions: Homo sapiens, SW-620, 24 h, change in expression level of E-cadherin in response to 10 μM compound, 24 hours, SW620 cells.
Format: cell-based
Procedure: SW620 and H520 cells (5×10^4/100 μL) were seeded in a 96-well plate prior to treatment. Cells were treated with 10 μM concentration of synthesized compound in quadruplicate for 24 hours in RPMI 1640 supplemented medium and 100 μg/mL penicillin-streptomycin. The cells were then fixed with 100% methanol for 20 minutes at 4° C. The wells were then washed 2 times with PBS, permeabilized in 2% bovine serum albumin (BSA) and 0.2% TritonX-100 in PBS for 30 minutes at room temperature with gentle agitation, and blocked in LI-COR blocking buffer for 30 minutes at room temperature with gentle agitation. The cells were then incubated with the following primary antibodies: anti-E-Cadherin (1:500) and anti-α-Tubulin (1:1000) diluted in blocking buffer (1:1 dilution in PBS) for 2 hours at room temperature with gentle agitation. The cells were washed 4 times in PBS-T for 5 minutes each, and then incubated with the following secondary antibodies conjugated to a fluorescent entity: IRDye 800-conjugated goat anti-rabbit IgG (1:1000) and IRDye-700-conjugated goat anti-mouse IgG (1:2000) in blocking buffer (1:1 dilution in PBS) with gentle agitation for 1 h at room temperature. The cells were washed 4 times in PBS-T for 5 minutes each followed by a single wash with PBS. All liquid was removed from the wells and the plates were visualized and analyzed on the Odyssey IR imaging system (LI-COR Biosciences).
The assay was further optimized in the following manner. The cells were washed 2 times with PBS, fixed in 100% methanol at room temperature for 15 minutes, and again washed 2 times with PBS. The cells were then incubated with the following primary antibodies: anti-E-Cadherin (1:200) and anti-α-Tubulin (1:2000) diluted in ice cold 2% bovine serum albumin (BSA) and 0.2% TritonX-100 in PBS for 1 hour at room temperature with gentle agitation. The cells were washed 2 times in PBS and then incubated with the following secondary antibodies conjugated to a fluorescent entity: Licor 800-conjugated goat anti-rabbit IgG (1:2000) and IRDye-700-conjugated goat anti-mouse IgG (1:2000) in ice cold 2% BSA and 0.2% TritonX-100 in PBS with gentle agitation for 45 minutes at room temperature. The wells were washed 2 times in PBS, dried, and analyzed as previously mentioned.
N-Acetamidoalkyl-5-arylisoxazole-3-carboxamide analogs were synthesized as described above. Changes in expression level of E-cadherin in response to 10 μM compound in SW620 cells was determined in a cell-based functional assay as described above, and the data are shown in Table III. The compound number corresponds to the compound numbers used in Table II.
EC50 of inducement of E-cadherin expression in SW620 cells was determined in a cell-based functional assay as described above, and the data are shown in Table V. The compound number corresponds to the compound numbers used in Table IV.

Row | Compound | fold induction at 10 µM
1 | Cc1ccc(C(=O)NCCCNC(=O)c2cc(-c3cccs3)on2)c(O)n1 [Compound 46, N-(3-(2-hydroxy-6-methylnicotinamido)propyl)-5-(thiophen-2-yl)isoxazole-3-carboxamide] | 3.48
2 | Cc1ncccc1C(=O)NCCCNC(=O)c1cc(-c2cccs2)on1 [Compound 47, N-(3-(2-methylnicotinamido)propyl)-5-(thiophen-2-yl)isoxazole-3-carboxamide] | 2.72
3 | COC(=O)c1ccc(C(=O)NCCCNC(=O)c2cc(-c3cccs3)on2)nc1 [Compound 48, methyl 6-((3-(5-(thiophen-2-yl)isoxazole-3-carboxamido)propyl)carbamoyl)nicotinate] | 1.48
4 | O=C(NCCCNC(=O)c1cc(-c2cccs2)on1)c1ccc(O)nc1 [Compound 49, N-(3-(6-hydroxynicotinamido)propyl)-5-(thiophen-2-yl)isoxazole-3-carboxamide] | 1.71
5 | O=C(NCCCNC(=O)c1cc(Br)cnc1O)c1cc(-c2cccs2)on1 [Compound 50, N-(3-(5-bromo-2-hydroxynicotinamido)propyl)-5-(thiophen-2-yl)isoxazole-3-carboxamide] | 1.4
6 | Cc1ccnc(O)c1C(=O)NCCCNC(=O)c1cc(-c2cccs2)on1 [Compound 51, N-(3-(2-hydroxy-4-methylnicotinamido)propyl)-5-(thiophen-2-yl)isoxazole-3-carboxamide] | 2.73
7 | COc1ncccc1C(=O)NCCCNC(=O)c1cc(-c2cccs2)on1 [Compound 52, N-(3-(2-methoxynicotinamido)propyl)-5-(thiophen-2-yl)isoxazole-3-carboxamide] | 3.99
8 | CCOc1ncccc1C(=O)NCCCNC(=O)c1cc(-c2cccs2)on1 [Compound 53, N-(3-(2-ethoxynicotinamido)propyl)-5-(thiophen-2-yl)isoxazole-3-carboxamide] | 3.52
9 | O=C(NCCCNC(=O)c1cc(-c2cccs2)on1)c1cncc(F)c1 [Compound 54, N-(3-(5-fluoronicotinamido)propyl)-5-(thiophen-2-yl)isoxazole-3-carboxamide] | 2.22
10 | Cc1cccnc1C(=O)NCCCNC(=O)c1cc(-c2cccs2)on1 [Compound 55, N-(3-(3-methylpicolinamido)propyl)-5-(thiophen-2-yl)isoxazole-3-carboxamide] | 2.98
11 | O=C(NCCCNC(=O)c1cc(-c2ccccc2)on1)c1cccnc1 [Compound 56, N-(3-(nicotinamido)propyl)-5-phenylisoxazole-3-carboxamide] | 3.43
12 | O=C(NCCCNC(=O)c1cc(-c2ccccc2)on1)c1cc(Cl)ccn1 [Compound 57, N-(3-(4-chloropicolinamido)propyl)-5-phenylisoxazole-3-carboxamide] | 3.3
13 | O=C(NCCCNC(=O)c1cc(-c2ccccc2)on1)c1ccc(O)cn1 [Compound 58, N-(3-(5-hydroxypicolinamido)propyl)-5-phenylisoxazole-3-carboxamide] | 3.57
14 | O=C(NCCCNC(=O)c1ccncc1O)c1cc(-c2ccccc2)on1 [Compound 59, N-(3-(3-hydroxyisonicotinamido)propyl)-5-phenylisoxazole-3-carboxamide] | 1.26
15 | COc1ccc(C(=O)NCCCNC(=O)c2cc(-c3ccccc3)on2)c(OC)n1 [Compound 60, N-(3-(2,6-dimethoxynicotinamido)propyl)-5-phenylisoxazole-3-carboxamide] | 2.32
16 | O=C(NCCCNC(=O)c1ncccc1F)c1cc(-c2ccccc2)on1 [Compound 61, N-(3-(3-fluoropicolinamido)propyl)-5-phenylisoxazole-3-carboxamide] | 2.94
17 | O=C(NCCCNC(=O)c1cccc(Br)n1)c1cc(-c2ccccc2)on1 [Compound 62, N-(3-(6-bromopicolinamido)propyl)-5-phenylisoxazole-3-carboxamide] | 2.59
18 | Cc1ccc(C(=O)NCCCNC(=O)c2cc(-c3ccccc3)on2)c(O)n1 [Compound 63, N-(3-(2-hydroxy-6-methylnicotinamido)propyl)-5-phenylisoxazole-3-carboxamide] | 4.59

Row | Compound | fold induction at 10 µM
19 | O=C(NCCCNC(=O)c1cc(-c2ccccc2)on1)c1ccnc(O)c1 [Compound 64, N-(3-(2-hydroxyisonicotinamido)propyl)-5-phenylisoxazole-3-carboxamide] | 1.8
20 | Cc1ncccc1C(=O)NCCCNC(=O)c1cc(-c2ccccc2)on1 [Compound 65, N-(3-(2-methylnicotinamido)propyl)-5-phenylisoxazole-3-carboxamide] | 2.05
21 | COC(=O)c1ccc(C(=O)NCCCNC(=O)c2cc(-c3ccccc3)on2)nc1 [Compound 66, methyl 6-((3-(5-phenylisoxazole-3-carboxamido)propyl)carbamoyl)nicotinate] | 1.55
22 | O=C(NCCCNC(=O)c1cc(-c2ccccc2)on1)c1ccc(O)nc1 [Compound 67, N-(3-(6-hydroxynicotinamido)propyl)-5-phenylisoxazole-3-carboxamide] | 1.22
23 | O=C(NCCCNC(=O)c1cc(Br)cnc1O)c1cc(-c2ccccc2)on1 [Compound 68, N-(3-(5-bromo-2-hydroxynicotinamido)propyl)-5-phenylisoxazole-3-carboxamide] | 1.61
24 | Cc1ccnc(O)c1C(=O)NCCCNC(=O)c1cc(-c2ccccc2)on1 [Compound 69, N-(3-(2-hydroxy-4-methylnicotinamido)propyl)-5-phenylisoxazole-3-carboxamide] | 2
25 | COc1ncccc1C(=O)NCCCNC(=O)c1cc(-c2ccccc2)on1 [Compound 70, N-(3-(2-methoxynicotinamido)propyl)-5-phenylisoxazole-3-carboxamide] | 2.62
26 | Cc1cccnc1C(=O)NCCCNC(=O)c1cc(-c2ccccc2)on1 [Compound 71, N-(3-(3-methylpicolinamido)propyl)-5-phenylisoxazole-3-carboxamide] | 3.61
27 | O=C(NCCCNC(=O)c1ccc2ccccc2n1)c1cc(-c2cccs2)on1 [Compound 72, N-(3-(quinoline-2-carboxamido)propyl)-5-(thiophen-2-yl)isoxazole-3-carboxamide] | 3.13
28 | O=C(NCCCNC(=O)c1cnc2ccccn12)c1cc(-c2cccs2)on1 [Compound 73, N-(3-(imidazo[1,2-a]pyridine-3-carboxamido)propyl)-5-(thiophen-2-yl)isoxazole-3-carboxamide] | 3.04
29 | O=C(NCCCNC(=O)c1ccc(Br)o1)c1cc(-c2cccs2)on1 [Compound 74, N-(3-(5-bromofuran-2-carboxamido)propyl)-5-(thiophen-2-yl)isoxazole-3-carboxamide] | 3.06
30 | O=C(NCCCNC(=O)c1cccs1)c1cc(-c2cccs2)on1 [Compound 75, 5-(thiophen-2-yl)-N-(3-(thiophene-2-carboxamido)propyl)isoxazole-3-carboxamide] | 3.05
31 | O=C(NCCCNC(=O)c1ccc(C(F)(F)F)o1)c1cc(-c2cccs2)on1 [Compound 76, 5-(thiophen-2-yl)-N-(3-(5-(trifluoromethyl)furan-2-carboxamido)propyl)isoxazole-3-carboxamide] | 2.68
32 | Cc1ccc(C(=O)NCCCNC(=O)c2cc(-c3cccs3)on2)o1 [Compound 77, N-(3-(5-methylfuran-2-carboxamido)propyl)-5-(thiophen-2-yl)isoxazole-3-carboxamide] | 2.99
33 | Cc1noc(C(=O)NCCCNC(=O)c2cc(-c3cccs3)on2)n1 [Compound 78, 3-methyl-N-(3-(5-(thiophen-2-yl)isoxazole-3-carboxamido)propyl)-1,2,4-oxadiazole-5-carboxamide] | 1.97
34 | Nc1ccc(C(=O)NCCCNC(=O)c2cc(-c3cccs3)on2)cn1 [Compound 79, N-(3-(6-aminonicotinamido)propyl)-5-(thiophen-2-yl)isoxazole-3-carboxamide] | 3.58
35 | Cc1nc(C(=O)NCCCNC(=O)c2cc(-c3cccs3)on2)no1 [Compound 80, 5-methyl-N-(3-(5-(thiophen-2-yl)isoxazole-3-carboxamido)propyl)-1,2,4-oxadiazole-3-carboxamide] | 2.83

Same assay, conditions: Homo sapiens, SW-620; inducement of E-cadherin expression in SW620 cells

Row | Compound | EC50
36 | Cc1ccc(C(=O)NCCCNC(=O)c2cc(-c3ccccc3)on2)c(O)n1 [Compound 63, N-(3-(2-hydroxy-6-methylnicotinamido)propyl)-5-phenylisoxazole-3-carboxamide] | 5.64 µM
